pIC50: −log10 of the molar value.
Biological target: T1, Diacylglycerol O-acyltransferase 2 (Homo sapiens, UniProt Q96PD7)
T1 sequence (Q96PD7 whole entry): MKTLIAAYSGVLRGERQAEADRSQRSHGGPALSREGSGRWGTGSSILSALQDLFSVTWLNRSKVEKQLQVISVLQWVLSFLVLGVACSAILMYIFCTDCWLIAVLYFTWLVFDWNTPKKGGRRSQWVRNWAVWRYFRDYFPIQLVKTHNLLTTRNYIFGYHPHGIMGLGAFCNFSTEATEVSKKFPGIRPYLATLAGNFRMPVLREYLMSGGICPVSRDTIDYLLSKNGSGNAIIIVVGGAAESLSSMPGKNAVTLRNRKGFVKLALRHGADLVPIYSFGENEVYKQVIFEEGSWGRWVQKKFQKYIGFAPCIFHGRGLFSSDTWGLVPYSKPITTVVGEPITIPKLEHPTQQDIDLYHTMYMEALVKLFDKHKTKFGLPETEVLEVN
Assay: DGAT2 Enzymatic Activity Assay
Procedure: DGAT2 activity was determined by measuring the amount of enzymatic product 13C18-triolein (13C-1,2,3-Tri(cis-9-octadecenoyl)glycerol) using the membrane prep mentioned above. The assay was carried out in ABgene 384-well assay plates in a final volume of 25 μL at rt. The assay mixture contained the following: assay buffer (100 mM Tris Cl, pH 7.0, 20 mM MgCl2, 5% ethanol), 25 μM of diolein, 5 μM of 13C oleoyl-CoA and 8 ng/μL of DGAT2 membrane.

pIC50	Compound
6.85	CC(C)n1nc(-c2cccc(OCC#N)c2)c2ncc(C(=O)NC3(C)CS(=O)(=O)C3)cc21 [US11787810, Example 103]
8.37	CC(C)n1nc(-c2cccc(OC(F)F)c2)c2ncc(C(=O)NC3(C)CCS(=O)(=O)CC3)cc21 [US11787810, Example 32]
5.10	CC(=O)N1CC(n2nc(-c3cccc(OC(F)F)c3)c3ncc(C(=O)NC4(C)CS(=O)(=O)C4)cc32)C1 [US11787810, Example 135]
